# Assay results: patent US7585873B2, “1-(aminoalkyl)-3-sulfonylazaindoles as 5-hydroxytryptamine-6 ligands” (Wyeth, priority 2002, dated 2009)
# pKi: −log10 of the molar value. Structures can show the parent of a compound that is named as a salt.
# Tested on: not given
# Experiment: not given
# Details: not given
row,Structure (SMILES),melting point
1,CN(C)CCn1cc(S(=O)(=O)c2cccc(C(F)(F)F)c2)c2cccnc21 (as salt: hydrochloride) [Example 19],108 to 112 °C
2,NCCn1cc(S(=O)(=O)c2ccccc2C(F)(F)F)c2cccnc21 (as salt: hydrochloride) [Example 21],182 to 185 °C
3,Cc1c(S(=O)(=O)c2cccc(F)c2)c2cccnc2n1CCN (as salt: hydrochloride) [Example 66],239 to 241 °C
4,CN(C)CCn1cc(S(=O)(=O)c2cccc3ccccc23)c2cccnc21 (as salt: hydrochloride) [Example 15],203 to 206 °C
5,CN(C)CCn1cc(S(=O)(=O)c2cccs2)c2cccnc21 (as salt: hydrochloride) [Example 25],212 to 216 °C
6,CN(C)CCn1cc(S(=O)(=O)c2ccccc2C(F)(F)F)c2cccnc21 (as salt: hydrochloride) [Example 20],196 to 198 °C
7,NCCn1cc(S(=O)(=O)c2cccs2)c2cccnc21 (as salt: hydrochloride) [Example 23],202 to 204 °C
8,O=S(=O)(c1cccc(F)c1)c1cn(CCN2CCOCC2)c2ncccc12 (as salt: hydrochloride) [Example 30],127 to 129 °C
9,CN(C)CCn1cc(S(=O)(=O)c2ccc(Cl)s2)c2cccnc21 (as salt: hydrochloride) [Example 33],169 to 171 °C
10,CN(C)CCn1cc(S(=O)(=O)c2c(Cl)nc3sccn23)c2cccnc21 (as salt: hydrochloride) [Example 34],180 to 182 °C
11,O=S(=O)(c1cccc(F)c1)c1cn(CCN2CCCCC2)c2ncccc12 (as salt: hydrochloride) [Example 29],197 to 199 °C
12,NCCn1cc(S(=O)(=O)c2ccc3ccccc3c2)c2cccnc21 (as salt: hydrochloride) [Example 67],233 to 238 °C
13,CN(C)CCn1cc(S(=O)(=O)c2cc(Cl)ccc2Cl)c2cccnc21 (as salt: hydrochloride) [Example 38],230 to 232 °C
14,CN(C)CCn1cc(S(=O)(=O)c2cc(Cl)cc(Cl)c2)c2cccnc21 (as salt: hydrochloride) [Example 26],227 to 232 °C
15,NCCn1cc(S(=O)(=O)c2cccc(C(F)(F)F)c2)c2cccnc21 (as salt: hydrochloride) [Example 22],179 to 183 °C
16,CC(CN)n1cc(S(=O)(=O)c2ccccc2)c2cccnc21 (stereo not drawn) (as salt: hydrochloride) [Example 68],180 to 185 °C
17,CN(C)CCn1cc(S(=O)(=O)c2ccc(F)cc2)c2cccnc21 (as salt: hydrochloride) [Example 13],189 to 192 °C
18,NCCn1cc(S(=O)(=O)c2cccc(F)c2)c2cccnc21 (as salt: hydrochloride) [Example 17],202 to 204 °C

# Target: T1, human cloned 5-HT6 receptors (Homo sapiens, UniProt P50406)
# T1 construct: expressed in transfected cells; host or cells: Hela cells
# Experiment: 5-HT6 binding affinity, [3H]-LSD displacement on membranes of Hela cells expressing human cloned 5-HT6 receptors
# Details: not given
# T1 sequence (P50406 whole entry): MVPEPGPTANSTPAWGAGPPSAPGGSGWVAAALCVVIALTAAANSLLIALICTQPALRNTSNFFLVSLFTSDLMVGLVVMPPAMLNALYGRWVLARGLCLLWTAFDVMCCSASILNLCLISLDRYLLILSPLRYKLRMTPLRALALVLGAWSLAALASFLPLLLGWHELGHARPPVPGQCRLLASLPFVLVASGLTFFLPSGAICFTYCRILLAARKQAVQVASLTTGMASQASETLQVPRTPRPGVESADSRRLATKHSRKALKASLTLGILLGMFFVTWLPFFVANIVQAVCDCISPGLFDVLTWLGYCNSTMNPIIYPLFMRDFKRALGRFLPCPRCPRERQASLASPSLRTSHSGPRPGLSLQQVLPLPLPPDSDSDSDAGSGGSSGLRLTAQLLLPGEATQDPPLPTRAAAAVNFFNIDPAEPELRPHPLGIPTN
row,Structure (SMILES),pKi
1,"NCCn1cc(S(=O)(=O)c2cccc(Cl)c2)c2cccnc21 [Example 12, 2-{3-[(3-Chlorophenyl)sulfonyl]-1H-pyrrolo[2,3-b]pyridin-1-yl}ethylamine dihydrochloride]",7.70

# Same assay, conditions: [3H]-LSD 3.0 nM, Hela cell membranes, 120 min at room temperature; read-out: 5-HT6 Binding Ki
row,Structure (SMILES),pKi
1,NCCn1cc(S(=O)(=O)c2ccccc2C(F)(F)F)c2cccnc21 [Example 21],8.70
2,NCCn1cc(S(=O)(=O)c2cccs2)c2cccnc21 [Example 23],8.05
3,"CN(C)CCn1cc(S(=O)(=O)c2cccc(F)c2)c2ncccc21 [Example 77, N,N-Dimethyl-N-(2-{3-[(3-fluorophenyl)sulfonyl]-1H-pyrrolo[3,2-b]pyridin-1-yl}ethyl)amine Dihydrochloride]",6.70
4,O=S(=O)(c1cccc(Cl)c1)c1cn(CCN2CCCC2)c2ncccc12 [Example 27],7.35
5,NCCn1cc(S(=O)(=O)c2cccc3ccccc23)c2cccnc21 [Example 16],8.70
6,NCCn1cc(S(=O)(=O)c2cccc(C(F)(F)F)c2)c2cccnc21 [Example 22],8.70
7,CN(C)CCn1cc(S(=O)(=O)c2cc(Cl)ccc2Cl)c2cccnc21 [Example 38],7.92
8,CN(C)CCn1cc(S(=O)(=O)c2cccc(Cl)c2)c2cccnc21 [Example 14],8.70
9,"NCCn1cc(S(=O)(=O)c2ccccc2)c2cccnc21 [Example 5, 2-[3-(Phenylsulfonyl)-1H-pyrrolo[2,3-b]pyridin-1-yl]ethylamine dihydrochloride]",8.22
10,CN(C)CCn1cc(S(=O)(=O)c2cc(Cl)cc(Cl)c2)c2cccnc21 [Example 26],8.40
11,CCNCCn1cc(S(=O)(=O)c2cccc(Cl)c2)c2cccnc21 [Example 60],8.52
12,CC(CN)n1cc(S(=O)(=O)c2ccccc2)c2cccnc21 (stereo not drawn) [Example 68],7.85
13,CN(C)CCn1cc(S(=O)(=O)c2ccc(F)cc2)c2cccnc21 [Example 13],7.30
14,CN(C)CCn1cc(S(=O)(=O)c2cccs2)c2cccnc21 [Example 25],7.82
15,NCCn1cc(S(=O)(=O)c2ccc3ccccc3c2)c2cccnc21 [Example 67],7.62
16,CN(C)CCn1cc(S(=O)(=O)c2cccc(C(F)(F)F)c2)c2cccnc21 [Example 19],8.30
17,Cc1c(S(=O)(=O)c2cccc(F)c2)c2cccnc2n1CCN [Example 66],8.70
18,CN(C)CCn1cc(S(=O)(=O)c2ccccc2C(F)(F)F)c2cccnc21 [Example 20],7.96
19,NCCn1cc(S(=O)(=O)c2cc(Cl)cc(Cl)c2)c2cccnc21 [Example 24],8.52
20,O=S(=O)(c1cccc(F)c1)c1cn(CCN2CCOCC2)c2ncccc12 [Example 30],6.39
21,O=S(=O)(c1cccc(F)c1)c1cn(CCN2CCCCC2)c2ncccc12 [Example 29],6.80
22,O=S(=O)(c1cccc(F)c1)c1cn(CCN2CCCC2)c2ncccc12 [Example 28],7.06
23,Cc1c(S(=O)(=O)c2ccccc2)c2cccnc2n1CCN [Example 18],8.30
24,COc1ccc2c(S(=O)(=O)c3ccccc3)cn(CCN(C)C)c2n1 [Example 42],7.41
25,CN(C)CCn1cc(S(=O)(=O)c2ccc(Cl)s2)c2cccnc21 [Example 33],8.40
26,"Cc1ccc(S(=O)(=O)c2cn(CCN)c3ncccc23)cc1 [Example 7, 2-{3-[(4-Methylphenyl)sulfonyl]-1H-pyrrolo[2,3-b]pyridin-1-yl}ethylamine dihydrochloride]",8.05
27,CN(C)CCn1cc(S(=O)(=O)c2c(Cl)nc3sccn23)c2cccnc21 [Example 34],8.70
28,NCCn1cc(S(=O)(=O)c2cccc(F)c2)c2cccnc21 [Example 17],8.22

# Same assay, conditions: read-out: 5-HT6 Binding Ki
row,Structure (SMILES),pKi
1,CN(C)CCn1cc(S(=O)(=O)c2cccc3ccccc23)c2cccnc21 [Example 15],9.00
2,"CNCCn1cc(S(=O)(=O)c2cccc(Cl)c2)c2cccnc21 [Example 57, N-(2-{3-[(3-Chlorophenyl)sulfonyl]-1H-pyrrolo[2,3-b]pyridin-1-yl}ethyl)-N-methylamine Hydrochloride]",9.52
3,"CN(C)CCn1cc(S(=O)(=O)c2ccccc2)c2cccnc21 [Example 6, N,N-Dimethyl-N-{2-[3-(phenylsulfonyl)-1H-pyrrolo[2,3-b]pyridin-1-yl]ethyl}amine dihydrochloride]",7.64
4,"NCCn1cc(S(=O)(=O)c2ccc(F)cc2)c2cccnc21 [Example 11, 2-{3-[(4-Fluorophenyl)sulfonyl]-1H-pyrrolo[2,3-b]pyridin-1yl}ethylamine hydrochloride]",7.66
